Legend:
ABUTH (Velvetleaf) = test: Postemergence herbicidal evaluation; type: in vivo, Abutilon theophrasti; details: postemergence
Outline: (§1)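 Compound is applied as a foliar spray to seedlings about two weeks old, formulated in equal parts acetone and water with 0.5% TWEEN 20 and delivered at 40 psi to give about 0.0156–0.500 kg per hectare. Injury is rated visually 0–9 after four to five weeks.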

[1] = test system: IPOHE (Morningglory, Ivyleaf); test: Postemergence herbicidal evaluation; type: in vivo, Ipomoea hederacea; details: postemergence
Outline: as §1

[2] = test system: TRZAWR (Wheat, Winter, cv Riband); test: Postemergence herbicidal evaluation; type: in vivo, Triticum aestivum; details: postemergence
Outline: as §1

[3] = test system: CHEAL (Lambsquarters, Common); test: Preemergence herbicidal evaluation; type: in vivo, Chenopodium album; details: rated 4-5 weeks after treatment, rating scale 0-9
Outline: (§2)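 Each species is sown separately in potting soil over roughly an inch of soil before any emergence. The soil surface then receives an aqueous acetone spray delivering about 0.0156 to 0.500 kg/ha of compound. After four to five weeks, injury is scored from 0 to 9 relative to a control.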

[4] = test system: IPOHE (Morningglory, Ivyleaf); test: Preemergence herbicidal evaluation; type: in vivo, Ipomoea hederacea; details: rated 4-5 weeks after treatment, rating scale 0-9
Outline: as §2

ECHCG (Barnyardgrass) = test: Preemergence herbicidal evaluation; type: in vivo, Echinochloa crus-galli; details: rated 4-5 weeks after treatment, rating scale 0-9
Outline: as §2

SETVI (Foxtail, Green) = test: Preemergence herbicidal evaluation; type: in vivo, Setaria viridis; details: rated 4-5 weeks after treatment, rating scale 0-9
Outline: as §2

ORYSAT (Rice, Tebonnet) = test: Preemergence herbicidal evaluation; type: in vivo, Oryza sativa, (L.) Tebonnet; details: rated 4-5 weeks after treatment, rating scale 0-9
Outline: as §2

[5] = test system: TRZAWR (Wheat, Winter, cv Riband); test: Preemergence herbicidal evaluation; type: in vivo, Triticum aestivum; details: rated 4-5 weeks after treatment, rating scale 0-9
Outline: as §2

[6] = test system: ECHORC (Watergrass (Calif.)); test: Preemergence weed control under flooded paddy conditions; type: in vivo, Echinochloa oryzoides; details: rated 3-4 weeks after treatment
Outline: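 First, seeds or propagules go into the top 0.5 cm of silt loam; next, water is held 1.5 to 3 cm over the soil; then compound (50/50 acetone/water) is pipetted into it at about 0.0313 to 0.500 kg/ha; finally plants are rated visually 0-9 after three to four weeks.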

MOOVA (Monochoria) = test: as above; type: in vivo, Monochoria vaginalis; details: rated 3-4 weeks after treatment
Outline: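 Seeds or propagules sown in silt loam kept flooded 1.5-3 cm; compounds in 50/50 acetone/water pipetted into flood water at about 0.0313 to 0.500 kg/ha. Greenhouse; visual 0-9 rating versus untreated control 3-4 weeks after treatment.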

COc1ccc(CN2C(=O)CSC2=Nc2cc(-n3c(=O)cc(C(F)(F)F)n(C)c3=O)c(F)cc2Cl)c(OC)c1 [Compound 139, 3-{4-Chloro-5-{[3-(2,4-dimethoxybenzyl)-4-oxo-2-thiazolidinylidene]amino}-2-fluorophenyl}-1-methyl-6-(trifluoromethyl)-2,4(1H,3H)-pyrimidinedione]
6.0: herbicidal effect rating, ECHORC ([6]; 0.0313 kg/ha)
1.0: Preemergence herbicidal rating ECHCG (ECHCG (Barnyardgrass); rate 0.0156 kg/ha) | Preemergence herbicidal rating ECHCG (ECHCG (Barnyardgrass); rate 0.1250 kg/ha) | Preemergence herbicidal rating ECHCG (ECHCG (Barnyardgrass); rate 0.2500 kg/ha) | Preemergence herbicidal rating SETVI (SETVI (Foxtail, Green); rate 0.1250 kg/ha) | Preemergence herbicidal rating ORYSAT (ORYSAT (Rice, Tebonnet); rate 0.1250 kg/ha) | Preemergence herbicidal rating TRZAWR ([5]; rate 0.2500 kg/ha)
9.0: herbicidal rating ABUTH (ABUTH (Velvetleaf); rate 0.0156 kg/ha) | herbicidal rating ABUTH (ABUTH (Velvetleaf); rate 0.0313 kg/ha) | herbicidal rating ABUTH (ABUTH (Velvetleaf); rate 0.0625 kg/ha) | herbicidal rating IPOHE ([1]; rate 0.0156 kg/ha) | herbicidal rating IPOHE ([1]; rate 0.0313 kg/ha) | Preemergence herbicidal rating CHEAL ([3]; rate 0.0625 kg/ha) | Preemergence herbicidal rating CHEAL ([3]; rate 0.1250 kg/ha) | Preemergence herbicidal rating CHEAL ([3]; rate 0.2500 kg/ha)
3.0: herbicidal rating TRZAWR ([2]; rate 0.0313 kg/ha)
2.0: Preemergence herbicidal rating IPOHE ([4]; rate 0.0625 kg/ha) | Preemergence herbicidal rating IPOHE ([4]; rate 0.2500 kg/ha) | Preemergence herbicidal rating ORYSAT (ORYSAT (Rice, Tebonnet); rate 0.2500 kg/ha)
5.0: herbicidal rating IPOHE ([1]; rate 0.0625 kg/ha) | herbicidal effect rating, MOOVA (MOOVA (Monochoria); 0.0625 kg/ha)
3.5: herbicidal rating TRZAWR ([2]; rate 0.0625 kg/ha)
0.0: Preemergence herbicidal rating CHEAL ([3]; rate 0.0156 kg/ha) | Preemergence herbicidal rating IPOHE ([4]; rate 0.0156 kg/ha) | Preemergence herbicidal rating IPOHE ([4]; rate 0.0313 kg/ha) | Preemergence herbicidal rating ECHCG (ECHCG (Barnyardgrass); rate 0.0313 kg/ha) | Preemergence herbicidal rating ECHCG (ECHCG (Barnyardgrass); rate 0.0625 kg/ha) | Preemergence herbicidal rating SETVI (SETVI (Foxtail, Green); rate 0.0156 kg/ha) | Preemergence herbicidal rating SETVI (SETVI (Foxtail, Green); rate 0.0313 kg/ha) | Preemergence herbicidal rating SETVI (SETVI (Foxtail, Green); rate 0.0625 kg/ha) | Preemergence herbicidal rating ORYSAT (ORYSAT (Rice, Tebonnet); rate 0.0156 kg/ha) | Preemergence herbicidal rating ORYSAT (ORYSAT (Rice, Tebonnet); rate 0.0313 kg/ha) | Preemergence herbicidal rating ORYSAT (ORYSAT (Rice, Tebonnet); rate 0.0625 kg/ha) | Preemergence herbicidal rating TRZAWR ([5]; rate 0.0156 kg/ha) | Preemergence herbicidal rating TRZAWR ([5]; rate 0.0313 kg/ha) | Preemergence herbicidal rating TRZAWR ([5]; rate 0.0625 kg/ha) | Preemergence herbicidal rating TRZAWR ([5]; rate 0.1250 kg/ha)
2.5: herbicidal rating TRZAWR ([2]; rate 0.0156 kg/ha)
4.0: herbicidal effect rating, MOOVA (MOOVA (Monochoria); 0.0313 kg/ha)
7.0: Preemergence herbicidal rating CHEAL ([3]; rate 0.0313 kg/ha) | Preemergence herbicidal rating SETVI (SETVI (Foxtail, Green); rate 0.2500 kg/ha) | herbicidal effect rating, ECHORC ([6]; 0.0625 kg/ha) | herbicidal effect rating, ECHORC ([6]; 0.1250 kg/ha) | herbicidal effect rating, ECHORC ([6]; 0.2500 kg/ha) | herbicidal effect rating, MOOVA (MOOVA (Monochoria); 0.1250 kg/ha) | herbicidal effect rating, MOOVA (MOOVA (Monochoria); 0.2500 kg/ha)

— patent US20020137929A1, “1 - (3-heterocyclylphenyl) isothiourea, -isourea, -guanidine and -amidine herbicidal agents” (Intellectual Property Department, BASF Aktiengesellschaft, priority 1998, published 2002)
